According to patent US7531558B2, “Carboxamide derivatives” (Glaxo Group Limited, priority 2003, dated 2009):

Tested on: FCA-induced mechanical hyperalgesia
Assay: FCA-induced hyperalgesia in the guinea pig (paw pressure, Randall-Sellito)
Type: in vivo
Conditions: male Dunkin Hartley guinea-pigs; oral 3, 10, 30 mg/kg 24 h after intraplantar FCA; reading 1 hour after drug administration
Method: 100 μl of 1 mg/ml FCA was injected intraplantar into the left paw of 4 groups of 8 male Dunkin Hartley guinea-pigs (batch: 6282434, average weight 340 g). 24 hours later compounds were administered orally at 0 (vehicle), 3, 10 30 mg/kg with vehicle as 1% methylcellulose and dosing volume being 2 ml/kg and dosing straight into the stomach. The methylcellulose was added gradually to the compound into the pestle and mortar and ground together.
Behavioural readouts of mechanical hyperalgesia were obtained before FCA administration (naïve reading), after FCA but before drug administration (predose reading) and 1 hour after drug administration. The readout used was paw pressure (Randall-Sellito) and the end point was paw withdrawal. The paw pressure equipment also had one silver disc placed on the point to increase the markings by a factor of 2.

SMILES | activity in FCA-induced mechanical hyperalgesia (paw withdrawal)
Cc1nc2cc(NC(=O)c3ccc(-c4ccc(F)cc4)nc3C)ccc2s1 [Example 1, 6-(4-Fluorophenyl)-2-methyl-N-(2-methylbenzothiazol-5-yl)nicotinamide] | active
Cc1nc2cc(NC(=O)c3ccc(-c4ccc(F)cc4F)nc3C)ccc2s1 [Example 2, 6-(2,4-Difluorophenyl)-2-methyl-N-(2-methylbenzothiazol-5-yl)-nicotinamide] | active
Cc1nc2cc(NC(=O)c3ccc(-c4ccc(F)c(F)c4)nc3C)ccc2s1 [Example 3, 6-(3,4-Difluorophenyl)-2-methyl-N-(2-methylbenzothiazol-5-yl)-nicotinamide] | active
Cc1nc(-c2ccc(F)cc2)ccc1C(=O)Nc1ccc2scnc2c1 [Example 4, N-Benzothiazol-5-yl-6-(4-fluorophenyl)-2-methyl-nicotinamide] | active
Cc1nc2cc(NC(=O)c3ccc(-c4cccc(F)c4F)nc3C)ccc2s1 [Example 5, 6-(2,3-Difluorophenyl)-2-methyl-N-(2-methylbenzothiazol-5-yl)-nicotinamide] | active
Cc1nc2cc(NC(=O)N3CCN(c4ccccc4F)CC3)ccc2s1 [Example 16, 4-(2-Fluorophenyl)-N-(2-methylbenzothiazol-5-yl)-1-piperazine carboxamide] | active
